Test results published in ChEMBL document CHEMBL1158421, “Inhibitory effect of a dimerization-arm-mimetic peptide on EGF receptor activation” (Bioorg Med Chem Lett, 2009).
Calls of active or inactive are those of the source. No cut-off for these calls is given here. Where a SMILES comes first, the peptide text is derived from it. Bridges are numbered along the chain shown (N, C = ends).

Columns and labels:
Type in all cases: cell-based
Details in all cases: A-431
[1] = biological target: Epidermal growth factor receptor (Homo sapiens) (UniProt P00533); assay: Reduction in EGF-induced dimerization of human EGFR in A431 cells at 0.01 to 1 uM preincubated for 30 mins before EGF challenge by SDS-PAGE
[2] = biological target: Epidermal growth factor receptor (Homo sapiens) (UniProt P00533); assay: Inhibition of EGF-stimulated human EGFR in intact A431 cells assessed as suppression of residual autophosphorylation at 10 uM preincubated for 3 hrs before EGF challenge by SDS-PAGE relative to control
[3] = biological target: Epidermal growth factor receptor (Homo sapiens) (UniProt P00533); assay: Reduction in EGF-induced dimerization of human EGFR in A431 cells preincubated for 30 mins before EGF challenge by SDS-PAGE
[4] = biological target: Epidermal growth factor receptor (Homo sapiens) (UniProt P00533); assay: Inhibition of EGF-stimulated human EGFR in intact A431 cells assessed as suppression of residual autophosphorylation at 1 uM preincubated for 3 hrs before EGF challenge by SDS-PAGE relative to control
[5] = biological target: Epidermal growth factor receptor (Homo sapiens) (UniProt P00533); assay: Inhibition of EGF-stimulated human EGFR in intact A431 cells assessed as suppression of residual autophosphorylation at 0.1 uM preincubated for 3 hrs before EGF challenge by SDS-PAGE relative to control
[6] = biological target: Epidermal growth factor receptor (Homo sapiens) (UniProt P00533); assay: Inhibition of EGF-induced dimerization of human EGFR in A431 cells at >1 uM preincubated for 30 mins before EGF challenge by SDS-PAGE
[7] = biological target: Epidermal growth factor receptor (Homo sapiens) (UniProt P00533); assay: Reduction in EGF-induced dimerization of human EGFR in A431 cells at 1 uM preincubated for 30 mins before EGF challenge by SDS-PAGE relative to control; set-up: scale not given: the % may be the effect or the level left

Sequence of Epidermal growth factor receptor (Homo sapiens) (P00533 whole entry): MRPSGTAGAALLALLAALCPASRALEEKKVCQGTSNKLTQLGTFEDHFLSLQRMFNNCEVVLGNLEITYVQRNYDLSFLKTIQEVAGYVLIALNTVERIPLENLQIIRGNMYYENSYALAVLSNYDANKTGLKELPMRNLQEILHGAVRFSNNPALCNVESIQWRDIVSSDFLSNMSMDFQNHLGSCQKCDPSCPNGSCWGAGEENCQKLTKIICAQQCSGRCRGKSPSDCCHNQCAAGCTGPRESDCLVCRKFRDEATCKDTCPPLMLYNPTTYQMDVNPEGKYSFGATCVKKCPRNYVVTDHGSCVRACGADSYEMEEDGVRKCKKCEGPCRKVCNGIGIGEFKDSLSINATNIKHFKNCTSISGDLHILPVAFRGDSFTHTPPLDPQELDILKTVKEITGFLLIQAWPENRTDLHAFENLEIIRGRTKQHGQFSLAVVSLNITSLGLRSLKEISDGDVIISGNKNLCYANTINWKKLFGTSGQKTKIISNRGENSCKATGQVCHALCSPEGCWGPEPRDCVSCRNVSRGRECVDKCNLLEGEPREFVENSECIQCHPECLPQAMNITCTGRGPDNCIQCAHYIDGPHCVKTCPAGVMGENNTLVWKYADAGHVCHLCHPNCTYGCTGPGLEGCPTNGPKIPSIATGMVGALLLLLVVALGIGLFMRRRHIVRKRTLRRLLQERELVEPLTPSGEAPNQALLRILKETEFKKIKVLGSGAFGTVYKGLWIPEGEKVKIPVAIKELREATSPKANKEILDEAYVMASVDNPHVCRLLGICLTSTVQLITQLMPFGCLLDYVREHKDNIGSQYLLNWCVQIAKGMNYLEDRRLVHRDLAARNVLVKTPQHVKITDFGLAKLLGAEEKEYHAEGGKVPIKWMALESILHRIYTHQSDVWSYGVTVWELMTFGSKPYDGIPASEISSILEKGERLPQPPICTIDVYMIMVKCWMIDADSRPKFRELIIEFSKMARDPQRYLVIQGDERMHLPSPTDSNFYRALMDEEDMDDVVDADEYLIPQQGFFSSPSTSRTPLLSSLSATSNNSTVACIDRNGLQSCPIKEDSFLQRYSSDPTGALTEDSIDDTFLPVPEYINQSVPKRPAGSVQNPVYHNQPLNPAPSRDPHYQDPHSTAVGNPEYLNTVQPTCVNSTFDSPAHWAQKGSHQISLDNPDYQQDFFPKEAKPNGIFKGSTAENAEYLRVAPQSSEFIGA

Activity [1]	Activity [2] [%]	Activity [3]	Activity [4] [%]	Activity [5] [%]	Activity [6]	Activity [7] [%]	Compound
inactive							CSCC[C@H](NC(=O)[C@H](CCC(N)=O)NC(=O)[C@H](Cc1ccc(O)cc1)NC(=O)[C@@H](NC(=O)[C@@H](NC(=O)[C@@H]1CCCN1C(=O)[C@H](CC(N)=O)NC(=O)[C@H](Cc1ccc(O)cc1)NC(=O)[C@@H](N)CS)[C@@H](C)O)[C@@H](C)O)C(=O)N[C@@H](CS)C(=O)O (H-CYNPTTYQMC-OH)
	30	Dose-dependent effect	51	61	inactive	< 80	CSCC[C@@H]1NC(=O)[C@H](CCC(N)=O)NC(=O)[C@H](Cc2ccc(O)cc2)NC(=O)[C@H]([C@@H](C)O)NC(=O)[C@H]([C@@H](C)O)NC(=O)[C@@H]2CCCN2C(=O)[C@H](CC(N)=O)NC(=O)[C@H](Cc2ccc(O)cc2)NC(=O)[C@@H](N)CSSC[C@@H](C(=O)O)NC1=O (H-CYNPTTYQMC-OH; disulfide 1-10)
